One assay deals with T1, TREK-1 (Rattus norvegicus, UniProt Q920B6).
T1 sequence (Q920B6 1-426): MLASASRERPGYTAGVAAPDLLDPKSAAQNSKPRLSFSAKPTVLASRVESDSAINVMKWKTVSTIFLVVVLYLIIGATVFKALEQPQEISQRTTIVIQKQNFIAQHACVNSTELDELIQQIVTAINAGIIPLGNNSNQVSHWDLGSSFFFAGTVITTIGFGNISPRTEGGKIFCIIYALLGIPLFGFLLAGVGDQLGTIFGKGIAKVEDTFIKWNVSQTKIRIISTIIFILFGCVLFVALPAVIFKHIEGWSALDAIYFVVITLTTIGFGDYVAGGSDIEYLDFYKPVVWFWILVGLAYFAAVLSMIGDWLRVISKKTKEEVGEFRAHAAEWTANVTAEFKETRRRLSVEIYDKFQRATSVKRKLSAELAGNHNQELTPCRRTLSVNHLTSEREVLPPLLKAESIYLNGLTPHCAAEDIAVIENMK
The assay is classed as cell-based.

For another assay, the target named is T2, TRESK (Homo sapiens, UniProt Q7Z418).
T2 sequence (Q7Z418 1-384): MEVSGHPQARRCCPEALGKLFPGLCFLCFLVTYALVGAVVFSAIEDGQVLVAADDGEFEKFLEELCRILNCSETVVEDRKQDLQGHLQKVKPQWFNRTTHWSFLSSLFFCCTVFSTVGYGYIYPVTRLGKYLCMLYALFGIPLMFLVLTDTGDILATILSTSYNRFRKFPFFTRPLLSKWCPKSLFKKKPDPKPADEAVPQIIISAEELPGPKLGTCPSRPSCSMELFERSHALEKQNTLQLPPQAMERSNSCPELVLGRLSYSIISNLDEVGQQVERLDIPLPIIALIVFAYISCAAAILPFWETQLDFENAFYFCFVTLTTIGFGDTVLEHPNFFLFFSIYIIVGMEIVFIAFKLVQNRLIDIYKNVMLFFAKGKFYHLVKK
The assay can be described thus: QA ion block of TRESK currents, giant inside-out patches from Xenopus oocytes. The assay is classed as cell-based.

The structures appear in SMILES notation.

Usually inhibition stands for the drop in the measured response relative to a control, in per cent. As a reminder, the IC50 is the concentration at which inhibition is half-maximal. In the case of `CCCC[N+](CCCC)(CCCC)CCCC` [TButA, Tetrabutylammonium bromide], the inhibition at 5000 µM at TREK-1 (read-out: inhibition of TREK-1 current) worked out at 60%. At TRESK, this compound had an IC50 of 7 ± 1 µM. The “recovery from inhibition (kinetics)” value at TRESK (TRESK, 5 μM, −80 mV) is listed as “fairly rapid”.

For `CC[N+](CC)(CC)CC` [TEA, Tetraethylammonium chloride], the IC50 against TREK-1 was around 60000 µM; against TRESK, 800 ± 100 µM.

Source of the values: article PMC3181484 (The EMBO Journal, 2011).
